The conditions of series [1]: human gut metagenome, 24 h, 2 µM.
The nature of series [2]: The drug is tested on Z-025 corresponding to rabbit gut metagenome with ENA study accession number: PRJEB37062 and ENA sample accession number: ERS12561824 for biotransformation under anaerobic condition. The drug concentrations were measured over 9 timepoints collected between 0 and 24 hours of incubation by liquid-chromatography-coupled mass spectrometry (LC–MS). The settings on record: 2 µM.

The conditions of series [3]: human gut metagenome, 24 h, 2 µM. This is another data set of the same source.
Series [4] can be described thus: The drug is tested on WLS-073 corresponding to human gut metagenome with ENA study accession number: PRJEB37062 and ENA sample accession number: ERS12561749 for biotransformation under anaerobic condition. The drug concentrations were measured over 9 timepoints collected between 0 and 24 hours of incubation by liquid-chromatography-coupled mass spectrometry (LC–MS). The settings on record: 2 µM.

For series [5] the following is noted: human gut metagenome, 24 h, 2 µM. This is another data set of the same source.
A short description of series [6]: The drug is tested on Z-026 corresponding to metagenome with ENA study accession number: PRJEB37062 and ENA sample accession number: ERS12561825 for biotransformation under anaerobic condition. The drug concentrations were measured over 9 timepoints collected between 0 and 24 hours of incubation by liquid-chromatography-coupled mass spectrometry (LC–MS). The settings on record: 2 µM.

For series [7] the following is noted: human gut metagenome, 24 h, 2 µM. The source holds these as a separate data set.
The conditions of series [8]: human gut metagenome, 24 h, 2 µM. This is another data set of the same source.
The conditions of series [9]: human gut metagenome, 24 h, 2 µM. This is another data set of the same source.
A short description of series [10]: The drug is tested on Z-023 corresponding to metagenome with ENA study accession number: PRJEB37062 and ENA sample accession number: ERS12561822 for biotransformation under anaerobic condition. The drug concentrations were measured over 9 timepoints collected between 0 and 24 hours of incubation by liquid-chromatography-coupled mass spectrometry (LC–MS). The following applies: 2 µM.

A short description of series [11]: The drug is tested on Z-012 corresponding to metagenome with ENA study accession number: PRJEB37062 and ENA sample accession number: ERS12561812 for biotransformation under anaerobic condition. The drug concentrations were measured over 9 timepoints collected between 0 and 24 hours of incubation by liquid-chromatography-coupled mass spectrometry (LC–MS). The settings on record: 2 µM.

Series [12] is described as follows: The drug is tested on WLS-082 corresponding to human gut metagenome with ENA study accession number: PRJEB37062 and ENA sample accession number: ERS12561751 for biotransformation under anaerobic condition. The drug concentrations were measured over 9 timepoints collected between 0 and 24 hours of incubation by liquid-chromatography-coupled mass spectrometry (LC–MS). The following applies: 2 µM.

For series [13] the following is noted: human gut metagenome, 24 h, 2 µM. This is another data set of the same source.
The conditions of series [14]: human gut metagenome, 24 h, 2 µM. The source holds these as a separate data set.
For series [15] the following is noted: human gut metagenome, 24 h, 2 µM. The source holds these as a separate data set.
For series [16] the following is noted: human gut metagenome, 24 h, 2 µM. This is another data set of the same source.
The conditions of series [17]: human gut metagenome, 24 h, 2 µM. This is another data set of the same source.
Series [18] in a line: The drug is tested on WLS-077 corresponding to human gut metagenome with ENA study accession number: PRJEB37062 and ENA sample accession number: ERS12561750 for biotransformation under anaerobic condition. The drug concentrations were measured over 9 timepoints collected between 0 and 24 hours of incubation by liquid-chromatography-coupled mass spectrometry (LC–MS). The following applies: 2 µM.

For series [19] the following is noted: human gut metagenome, 24 h, 2 µM. The source holds these as a separate data set.
Series [20] in a line: The drug is tested on WLS-220 corresponding to human gut metagenome with ENA study accession number: PRJEB37062 and ENA sample accession number: ERS12561769 for biotransformation under anaerobic condition. The drug concentrations were measured over 9 timepoints collected between 0 and 24 hours of incubation by liquid-chromatography-coupled mass spectrometry (LC–MS). The settings on record: 2 µM.

SMILES strings stand for the structures.
Note: call rule not given here.

As to `COc1ccc(CN2CCNCC2)c(OC)c1OC.Cl.Cl` [TRIMETAZIDINE DIHYDROCHLORIDE], the “Bacterial Biotransformation” value in series [1], in [2], in [3], in series [4], in [5] and in series [6] was “Compound NOT metabolized” in each case. Moreover, the “Bacterial Biotransformation” value in [7], in series [8], in series [9], in series [10], in series [11] and in series [12] was “Compound NOT metabolized” in each case. Besides, the “Bacterial Biotransformation” value in [13], in series [14], in [15], in series [16], in series [17] and in [18] was “Compound NOT metabolized” each time. Also, the “Bacterial Biotransformation” value in series [19] and in series [20] was “Compound NOT metabolized” in each case.

Regarding `CN1[C@@H]2CC[C@H]1C[C@@H](OC(=O)c1c[nH]c3ccccc13)C2` [TROPISETRON], the “Bacterial Biotransformation” value was “Compound NOT metabolized” in series [1]; “Compound NOT metabolized” in series [2]; “Compound NOT metabolized” in series [3]; “Compound NOT metabolized” in series [4]; “Compound metabolized” in series [5]; “Compound NOT metabolized” in [6]. Moreover, the “Bacterial Biotransformation” value in [7], in series [8], in [9], in series [10], in series [11] and in series [12] was “Compound NOT metabolized” in each case. In addition, the “Bacterial Biotransformation” value in series [13], in series [14], in [15], in [16], in [17] and in [18] was “Compound NOT metabolized” throughout. Moreover, the “Bacterial Biotransformation” value in [19] and in series [20] was “Compound NOT metabolized” each time.

For the molecule `C[C@@H](c1ncncc1F)[C@](O)(Cn1cncn1)c1ccc(F)cc1F` [VORICONAZOLE], the “Bacterial Biotransformation” value is listed as “Compound metabolized” in series [1]; “Compound NOT metabolized” in series [2]; “Compound metabolized” in [3]; “Compound metabolized” in series [4]; “Compound metabolized” in series [5]; “Compound NOT metabolized” in [6]. Moreover, the “Bacterial Biotransformation” value in series [7], in [8], in series [9], in series [10], in series [11] and in series [12] was “Compound metabolized” each time. For the same molecule, the “Bacterial Biotransformation” value in series [13] is given as “Compound NOT metabolized”; in series [14], “Compound metabolized”; in series [15], “Compound metabolized”; in series [16], “Compound metabolized”; in [17] it was “Compound metabolized”; in series [18], “Compound metabolized”. Moreover, the “Bacterial Biotransformation” value in series [19] and in [20] was “Compound metabolized” each time.

For the origin of these results see ChEMBL document CHEMBL5724914, “Linking interpersonal differences in gut microbiota composition and drug biotransformation activity” (2024).
